pKi: −log10 of the molar value.

Data set [1] has as its target T1, human CRHR2 (Homo sapiens, UniProt Q13324).
T1 construct: expressed in transfected cells
T1 sequence (Q13324 1-411): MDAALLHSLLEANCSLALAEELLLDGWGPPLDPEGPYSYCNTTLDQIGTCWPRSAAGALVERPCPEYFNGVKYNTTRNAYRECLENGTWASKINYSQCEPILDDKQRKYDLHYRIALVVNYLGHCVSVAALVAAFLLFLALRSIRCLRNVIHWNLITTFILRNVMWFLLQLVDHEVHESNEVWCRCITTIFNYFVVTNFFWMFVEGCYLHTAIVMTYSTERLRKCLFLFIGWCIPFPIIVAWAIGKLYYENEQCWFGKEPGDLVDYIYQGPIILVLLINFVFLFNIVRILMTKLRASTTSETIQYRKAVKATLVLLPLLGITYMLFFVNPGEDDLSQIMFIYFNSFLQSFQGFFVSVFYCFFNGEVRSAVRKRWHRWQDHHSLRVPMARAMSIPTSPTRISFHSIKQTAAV
Description: CRHR2 radioligand binding, [125I]-anti-sauvagine-30, SK-N-MC membranes. The conditions noted are these: for pKi / nH: CRHR2. Here is the method:
The binding profile of h-SCP (SEQ ID NO:1) at CRHR2 was determined in radioligand binding studies in a membrane preparation of SK-N-MC cells stably transfected with human CRHR2 using [^125I]-anti-sauvagine-30 as the radiolabel. […] The solution was then homogenized with a Polytron tissue grinder at a setting of 10 and 7×3 s (Brinkmann Instruments, Westbury, N.Y.). […] The supernatant was re-centrifuged at 26,892×g for 25 min at 4° Celsius with the final pellet being re-suspended in assay buffer. […] For competition studies, cell membranes of […] volume were incubated with either 60 pM [^125I]-anti-sauvagine-30 in 50 μl volume for the CRHR2 assay or with)[^125I]-([…]-sauvagine for the CRHR1 assay in the presence of 15 μl of competing ligand for 120 min having a total volume of 150 μl. […] The bound radioactivity was separated by filtration using a Multiscreen Resist manifold (Millipore Corp., Billerica, Mass., U.S.A). The filters were washed three times with ice-cold PBS at pH 7.5 and radioactivity retained on the filters was quantified by its liquid scintillation measured by a TopCount counter (Packard BioScience, Boston, Mass., U.S.A). All experiments were performed in triplicate. Data from individual competition curves were expressed as the percentage of specific [^125I]-anti-sauvagine-30 or)[^125I]-([…]-sauvagine binding (B) within each experiment. […] The competition curve obtained with h-SCP (SEQ ID NO:1) was biphasic.

Data set [2] concerns the target T2, h-CRHR2b (Homo sapiens, UniProt Q13324).
T2 sequence (Q13324 1-438 isoform Q13324-2): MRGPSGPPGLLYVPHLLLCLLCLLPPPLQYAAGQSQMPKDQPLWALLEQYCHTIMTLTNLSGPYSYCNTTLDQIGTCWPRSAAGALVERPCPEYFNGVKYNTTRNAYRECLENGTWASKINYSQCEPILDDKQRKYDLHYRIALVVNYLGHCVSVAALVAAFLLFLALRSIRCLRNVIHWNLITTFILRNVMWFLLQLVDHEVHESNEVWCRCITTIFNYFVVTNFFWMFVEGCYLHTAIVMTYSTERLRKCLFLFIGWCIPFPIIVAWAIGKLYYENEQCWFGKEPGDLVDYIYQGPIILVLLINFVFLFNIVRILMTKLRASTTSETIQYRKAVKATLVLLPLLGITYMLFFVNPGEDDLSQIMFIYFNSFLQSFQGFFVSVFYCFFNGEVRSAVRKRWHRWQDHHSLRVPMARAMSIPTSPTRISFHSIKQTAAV
The conditions noted are these: h-CRHR2b transfected HEK-293 cells, approximated values from concentration response curves (Hsu et al., 2001); cited from earlier work.

Data set [3] deals with T3, CRHR1 (Homo sapiens, UniProt P34998).
T3 sequence (P34998 24-415): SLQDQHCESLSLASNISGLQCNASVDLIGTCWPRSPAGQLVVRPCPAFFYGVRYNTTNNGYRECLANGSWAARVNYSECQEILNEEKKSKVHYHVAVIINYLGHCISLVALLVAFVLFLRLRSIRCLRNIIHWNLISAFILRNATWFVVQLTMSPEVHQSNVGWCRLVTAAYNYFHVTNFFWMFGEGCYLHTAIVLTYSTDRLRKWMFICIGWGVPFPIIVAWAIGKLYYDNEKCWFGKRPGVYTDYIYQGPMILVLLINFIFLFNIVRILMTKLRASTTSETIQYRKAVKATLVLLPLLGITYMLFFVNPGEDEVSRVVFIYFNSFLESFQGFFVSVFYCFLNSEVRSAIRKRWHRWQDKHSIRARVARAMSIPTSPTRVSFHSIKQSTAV
Description: CRHR1 radioligand binding, [125I]-(Tyr0)-sauvagine. On the set-up: host or cells: cell membranes. The source says:
The solution was then homogenized with a Polytron tissue grinder at a setting of 10 and 7×3 s (Brinkmann Instruments, Westbury, N.Y.). […] The bound radioactivity was separated by filtration using a Multiscreen Resist manifold (Millipore Corp., Billerica, Mass., U.S.A). The filters were washed three times with ice-cold PBS at pH 7.5 and radioactivity retained on the filters was quantified by its liquid scintillation measured by a TopCount counter (Packard BioScience, Boston, Mass., U.S.A). All experiments were performed in triplicate.

In data set [4] the test system is male dogs. Description: GLP cardiovascular safety study in male dogs. Format: in vivo, dog. Here is the method: The NOAEL of 33.3 ng/kg/min was determined in a GLP cardiovascular safety study in male dogs, which is considered to be the most relevant and sensitive species for cardiovascular drugs.
A NOAEL of 33.3 ng/kg/min was determined in a GLP cardiovascular safety study in male dogs, which is considered to be the most relevant and sensitive species for cardiovascular drugs. […] Based on these values a starting dose of 0.1 ng/kg/min was selected.

In data set [1], “H-HPGSRIVLSLDVPIGLLQILLEQARARAAREQATTNARILARV-NH2 [SEQ ID NO: 117, HPGSRIVLSLDVPIGLLQILLEQARARAAREQATTNARILARV-NH2, reference compound]” had a pKi of 7.57 and a nH of 1.26 ± 0.14. Further, the “Published pA50” value in data set [2] is recorded as ~9^4.

Turning to `CC[C@H](C)[C@H](NC(=O)[C@H](CO)NC(=O)[C@H](CC(C)C)NC(=O)[C@@H]1CCCN1C(=O)[C@@H]1CCCN1C(=O)[C@H](CC(=O)O)NC(=O)[C@@H](N)CC(=O)O)C(=O)N[C@@H](CC(=O)O)C(=O)N[C@@H](CC(C)C)C(=O)N[C@H](C(=O)N[C@@H](Cc1ccccc1)C(=O)N[C@@H](Cc1c[nH]cn1)C(=O)N[C@@H](CC(C)C)C(=O)N[C@@H](CC(C)C)C(=O)N[C@@H](CCCNC(=N)N)C(=O)N[C@H](C(=O)N[C@@H](CC(C)C)C(=O)N[C@@H](CC(C)C)C(=O)N[C@@H](CCC(=O)O)C(=O)N[C@@H](CC(C)C)C(=O)N[C@@H](C)C(=O)N[C@@H](CCCNC(=N)N)C(=O)N[C@H](C(=O)N[C@@H](CCC(N)=O)C(=O)N[C@@H](CO)C(=O)N[C@@H](CCC(N)=O)C(=O)N[C@@H](CCCNC(=N)N)C(=O)N[C@@H](CCC(=O)O)C(=O)N[C@@H](CCCNC(=N)N)C(=O)N[C@@H](C)C(=O)N[C@@H](CCC(=O)O)C(=O)N[C@@H](CCC(N)=O)C(=O)N[C@@H](CC(N)=O)C(=O)N[C@@H](CCCNC(=N)N)C(=O)N[C@H](C(=O)N[C@H](C(=O)N[C@@H](Cc1ccccc1)C(=O)N[C@@H](CC(=O)O)C(=O)N[C@@H](CO)C(=O)N[C@H](C(N)=O)C(C)C)[C@@H](C)CC)[C@@H](C)CC)[C@@H](C)O)[C@@H](C)O)[C@@H](C)O` [SEQ ID NO: 114, DDPPLSIDLTFHLLRTLLELARTQSQRERAEQNRIIFDSV-NH2], in data set [1], the pKi is 8.51 and the nH was found to be 1.19 ± 0.14. In data set [3], this molecule yielded a nH of 0.91 ± 0.27.

On to “H-TKFTLSLDVPTNIMNLLFNIAKAKNLRAQAAANAHLMAQI-NH2 [SEQ ID NO: 1, TKFTLSLDVPTNIMNLLFNIAKAKNLRAQAAANAHLMAQI-NH2]”, for which, in data set [1], the pKi is 5.71 and the nH is on record as 1.00 ± 0.04. In addition, the “competition curve / binding profile” value in data set [1] (CRHR2, [125I]-anti-sauvagine-30) is given as “biphasic”. The IC50 in data set [1] (biphasic competition curve, read-out: low pIC50 (low affinity receptor binding state) (converted)) is 251 nM. Also, the “Published pA50” value in data set [2] is listed as ~9^4. In data set [3], this molecule showed a negative logarithm of the Ki (pKi) of 4.60 and a nH of 1.16 ± 0.65. The “upper limit of plasma concentration” value in data set [4] (dog, in vivo) was found to be 12.0 ng/mL. In data set [4] (expected Cpss at 0.1 ng/kg/min versus upper limit in dogs), the safety margin is given as 1,390 fold. The same molecule registered an NOAEL in data set [4] (male dogs) of 33.3 ng/kg/min.

A word on the pKi: it is the Ki on a negative log10 scale, so that one unit is a factor of ten. A high value points to a small Ki. For orientation: NOAEL means the highest tested level that showed no adverse finding.

The values are drawn from patent publication US20110105397A1, “METHOD FOR TREATING HEART FAILURE WITH STRESSCOPIN-LIKE PEPTIDES” (priority 2009, published 2011).
